Laboratory results from patent US20100015603A1, “Chimeric proteins for measuring atp concentrations in pericellular space and related screening method” (priority 2005, published 2010).

Assays:
pmeLUC = target: T1, pmeLUC (Photinus pyralis, UniProt P08659, N119G/N50D); assay: Response of HEK293-pmeLUC cells to extracellular nucleotides (affinity and selectivity of the pmeLUC probe, luminescence); format: cell-based; details: HEK293-pmeLUC cells, FIG. 2A
T1 construct: expressed in transfected cells
T1 sequence (P08659 with tags, fused parts or gaps N50D/N119G): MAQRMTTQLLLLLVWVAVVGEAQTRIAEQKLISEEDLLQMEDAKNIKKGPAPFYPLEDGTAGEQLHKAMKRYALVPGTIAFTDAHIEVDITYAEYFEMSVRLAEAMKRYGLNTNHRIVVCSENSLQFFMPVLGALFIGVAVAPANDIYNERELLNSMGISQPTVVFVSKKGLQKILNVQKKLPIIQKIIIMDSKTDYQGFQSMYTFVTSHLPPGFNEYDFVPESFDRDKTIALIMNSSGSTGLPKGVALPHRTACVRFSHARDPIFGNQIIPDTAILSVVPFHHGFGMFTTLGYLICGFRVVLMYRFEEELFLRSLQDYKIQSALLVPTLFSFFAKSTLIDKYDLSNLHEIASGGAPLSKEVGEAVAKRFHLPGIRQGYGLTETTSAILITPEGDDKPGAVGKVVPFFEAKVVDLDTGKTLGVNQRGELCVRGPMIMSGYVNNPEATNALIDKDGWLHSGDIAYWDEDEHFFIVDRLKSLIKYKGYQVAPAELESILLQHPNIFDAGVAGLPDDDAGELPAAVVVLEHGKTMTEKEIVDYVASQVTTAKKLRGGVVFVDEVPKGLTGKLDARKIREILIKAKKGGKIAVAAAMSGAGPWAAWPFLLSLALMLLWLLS
Experimental: ATP was measured in the custom-made luminometer described by Rizzuto and co-workers (Brini et al., 1999; Jouaville et al., 1999). For experiments, cells were plated onto 13 mm coverslips and were placed in a 37° C. thermostatted chamber (diameter 15 mm, height 2 mm) and perfused with a saline solution supplemented with luciferin at a concentration of 5 μM. The chamber was held in a photomultiplier kept in a dark refrigerated (4° C.) box. Light emission was detected by a Thorn EMI photon counting board installed in an IBM-compatible computer. The board allowed storing of the data in the computer memory for further analysis. During the experiments the thermostatted chamber was continuously perfused with buffer by means of a Gilson peristaltic pump. Alternatively, ATP was measured in the supernatants using soluble luciferase in a Firezyme luminometer as previously described (Baricordi et al., 1999; Solini et al, 2004; Zanovello et al., 1990).
Affinity of pmeLUC for ATP is rather low, with a threshold of about 10 μM, however, subsequent ATP additions elicit further increases in light emission that allow building a calibration curve (FIG. 2B). Importantly, pmeLUC is insensitive to all other nucleotides tested (ADP, UTP, UDP and GTP) (FIG. 2A).

HEK293-pmeLUC cells = format: cell-based; details: HEK293-pmeLUC cells, not shown
Experimental: HEK293 cells were cultured in DMEM-F12 (Sigma-Aldrich). Media were supplemented with 10% heat-inactivated FBS, 100 U/ml penicillin and 100 μg/ml streptomycin (Invitrogen corporation, San Giuliano Milanese, Italy). ACN neuroblastoma cells were cultured in DMEM supplemented with MEM non-essential amino acid solution 100× (Sigma-Aldrich). HEK293 cells were transfected with the calcium phosphate method. Cells transiently expressing the pmeLUC construct were assayed 36 hours after transfection. Clones stably expressing pmeLUC or the P2X7R were generated by culture of the transfected cells in the presence of G418 (0.8 mg/ml, added 48 hours after transfection) for 3 weeks. Stable P2X7- or pmeLUC-expressing clones were kept in the continuous presence of 0.2 mg/ml of G418 sulphate (Geneticin) (Calbiochem, la Jolla, Calif.). ACN cells were transfected with pmeLUC by lipofectamine (Invitrogen) and tested 24 hours after transfection. Briefly, cells were incubated in 250 μl serum-free transfection medium (OPTIMEM) in the presence of lipofectamine-plus-DNA (0.4 μg per well). After 3 hours incubation 1 ml of DMEM plus 10% FBS supplemented with MEM non-essential amino acid solution 100× (Sigma-Aldrich) was added. Cells were assayed 24 hours after transfection. In order to allow a high level of plasma membrane expression of the transfected constructs, cells were incubated overnight in the presence of 1 mM DTT (Mezghrani et al, 2001). Furthermore, they were also kept at room temperature (21° C.) for two hours prior to transfer into the thermostated luminometer chamber.
ATP was measured in the custom-made luminometer described by Rizzuto and co-workers (Brini et al., 1999; Jouaville et al., 1999). […] Light emission was detected by a Thorn EMI photon counting board installed in an IBM-compatible computer. […] Alternatively, ATP was measured in the supernatants using soluble luciferase in a Firezyme luminometer as previously described (Baricordi et al., 1999; Solini et al, 2004; Zanovello et al., 1990).

| SMILES | sensitivity of pmeLUC to other nucleotides (pmeLUC) | ATP release triggered by agonists of G protein-coupled receptors (HEK293-pmeLUC cells) |
| --- | --- | --- |
| Nc1ncnc2c1ncn2[C@@H]1O[C@H](COP(=O)(O)OP(=O)(O)O)[C@@H](O)[C@H]1O [ADP] | insensitive | – |
| C[N+](C)(C)CCOC(N)=O [carbachol] | – | negligible ATP release |
| Nc1nc2c(ncn2[C@@H]2O[C@H](COP(=O)(O)OP(=O)(O)OP(=O)(O)O)[C@@H](O)[C@H]2O)c(=O)[nH]1 [GTP] | insensitive | – |
| O=c1ccn([C@@H]2O[C@H](COP(=O)(O)OP(=O)(O)O)[C@@H](O)[C@H]2O)c(=O)[nH]1 [UDP] | insensitive | – |
| O=c1ccn([C@@H]2O[C@H](COP(=O)(O)OP(=O)(O)OP(=O)(O)O)[C@@H](O)[C@H]2O)c(=O)[nH]1 [UTP] | insensitive | – |
